Data published in ChEMBL document CHEMBL1201862, “PubChem BioAssay data set” (2004).
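All cell lines were grown in 96-well plates and treated with compound for 48 hours. Here, GI50 denotes the concentration required for 50% inhibition of growth.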 Active and inactive are the calls of the source. Cut-off read from the data, not from the text of the source: active = GI50 up to about 1.1 µM and inactive = higher.

Key:
Assay in all cases: NCI tumour cell line growth inhibition, 48 h
HT-29 = system: HT-29
SR = system: SR
NCI/ADR-RES = system: NCI/ADR-RES
MDA-MB-231 = system: MDA-MB-231
NCI-H460 = system: NCI-H460
UACC-62 = system: UACC-62
786-0 = system: 786-0
SK-MEL-5 = system: SK-MEL-5
Hs-578T = system: Hs-578T
HOP-62 = system: HOP-62
NCI-H226 = system: NCI-H226
SNB-75 = system: SNB-75
UO-31 = system: UO-31
LOX IMVI = system: LOX IMVI
TK-10 = system: TK-10
CCRF-CEM = system: CCRF-CEM
SF-295 = system: SF-295
NCI-H23 = system: NCI-H23
MDA-MB-435 = system: MDA-MB-435
HL-60 = system: HL-60

Row | SMILES | GI50 (HT-29) | GI50 (SR) | GI50 (NCI/ADR-RES) | GI50 (MDA-MB-231) | GI50 (NCI-H460) | GI50 (UACC-62) | GI50 (786-0) | GI50 (SK-MEL-5) | GI50 (Hs-578T) | GI50 (HOP-62) | GI50 (NCI-H226) | GI50 (SNB-75) | GI50 (UO-31) | GI50 (LOX IMVI) | GI50 (TK-10) | GI50 (CCRF-CEM) | GI50 (SF-295) | GI50 (NCI-H23) | GI50 (MDA-MB-435) | GI50 (HL-60)
1 | O=C1C(=C(C(F)(F)Cl)C(F)(F)Cl)C2CCC1C2 (stereo not given) | 2.19 µM (inactive) | 0.0655 µM (active) | 2.15 µM (inactive) | 1.56 µM (inactive) | 3.15 µM (inactive) | 2.01 µM (inactive) | 1.87 µM (inactive) | 1.67 µM (inactive) | 4.51 µM (inactive) | > 9.16 µM (inactive) | > 5.38 µM (inactive) | 4.3 µM (inactive) | 2.49 µM (inactive) | 1.33 µM (inactive) | 1.77 µM (inactive) | 0.00986 µM (active) | 4.67 µM (inactive) | 1.96 µM (inactive) | 1.88 µM (inactive) | 0.238 µM (active)
2 | C=C1C(=O)OC2CC1C(O)C/C(C)=C/CC/C(C)=C/C(O)CC2C (stereo not given) | 1.78 µM (inactive) | 0.52 µM (active) | 2 µM (inactive) | 3.52 µM (inactive) | 2.88 µM (inactive) | 2.34 µM (inactive) | 1.53 µM (inactive) | 4.19 µM (inactive) | 3.03 µM (inactive) | 11.4 µM (inactive) | 9.33 µM (inactive) | 3.43 µM (inactive) | 2.33 µM (inactive) | 1.29 µM (inactive) | 2.05 µM (inactive) | 0.203 µM (active) | 13.3 µM (inactive) | 2.44 µM (inactive) | 2.85 µM (inactive) | 0.262 µM (active)
3 | Cc1cccc(C)c1/N=N/c1ccc(O)c(CN(C)C)c1 | 22.7 µM (inactive) | 34.4 µM (inactive) | 41.2 µM (inactive) | > 100 µM (inactive) | 26 µM (inactive) | 26.7 µM (inactive) | 43.9 µM (inactive) | 11.7 µM (inactive) | 30.8 µM (inactive) | 51.6 µM (inactive) | 87.9 µM (inactive) | 75.3 µM (inactive) | 15.6 µM (inactive) | 36.5 µM (inactive) | 59.6 µM (inactive) | 34.8 µM (inactive) | 71.6 µM (inactive) | 60.1 µM (inactive) | 41.8 µM (inactive) | 26.9 µM (inactive)
4 | CC(=O)Oc1ccc(-c2nnc(-c3ccc(OC(C)=O)cc3)nn2)cc1 | > 100 µM (inactive) | 20.4 µM (inactive) | 38.8 µM (inactive) | > 100 µM (inactive) | > 100 µM (inactive) | > 100 µM (inactive) | > 100 µM (inactive) | > 100 µM (inactive) | > 100 µM (inactive) | > 100 µM (inactive) | > 100 µM (inactive) | > 100 µM (inactive) | 64 µM (inactive) | > 100 µM (inactive) | > 100 µM (inactive) | 40.6 µM (inactive) | > 100 µM (inactive) | > 100 µM (inactive) | > 100 µM (inactive) | 29.8 µM (inactive)
5 | O=P(Oc1ccc(Cl)cc1)(Oc1ccc(Cl)cc1)N1CC1 | > 10 µM (inactive) | > 10 µM (inactive) | > 10 µM (inactive) | > 10 µM (inactive) | > 10 µM (inactive) | > 10 µM (inactive) | > 10 µM (inactive) | > 10 µM (inactive) | > 10 µM (inactive) | > 10 µM (inactive) | > 10 µM (inactive) | > 10 µM (inactive) | > 10 µM (inactive) | > 10 µM (inactive) | > 10 µM (inactive) | 0.174 µM (active) | > 10 µM (inactive) | > 10 µM (inactive) | > 10 µM (inactive) | > 10 µM (inactive)
6 | O=C1CC(c2ccccc2Cl)C2(C(=O)NC(=O)NC2=O)C(c2ccccc2Cl)C1 (stereo not given) | > 100 µM (inactive) | 58.1 µM (inactive) | > 100 µM (inactive) | > 100 µM (inactive) | 98.4 µM (inactive) | 46.9 µM (inactive) | > 100 µM (inactive) | > 100 µM (inactive) | 41.4 µM (inactive) | > 100 µM (inactive) | 65.8 µM (inactive) | > 100 µM (inactive) | > 100 µM (inactive) | 51.8 µM (inactive) | > 100 µM (inactive) | > 100 µM (inactive) | > 100 µM (inactive) | > 100 µM (inactive) | 52.6 µM (inactive) | 80.4 µM (inactive)
7 | COc1cc(C2(O)c3ccccc3C3=NCCN32)cc(OC)c1OC (stereo not given) | > 100 µM (inactive) | 64.3 µM (inactive) | > 100 µM (inactive) | > 100 µM (inactive) | > 100 µM (inactive) | > 100 µM (inactive) | > 100 µM (inactive) | > 100 µM (inactive) | > 100 µM (inactive) | > 100 µM (inactive) | 73.3 µM (inactive) | > 100 µM (inactive) | > 100 µM (inactive) | > 100 µM (inactive) | > 100 µM (inactive) | > 100 µM (inactive) | > 100 µM (inactive) | > 100 µM (inactive) | > 100 µM (inactive) | > 100 µM (inactive)
